{"source": "patent US10647747B2", "about": "“Cyclosporin derivatives and uses thereof” (S&T Global Inc., priority 2010, dated 2020)", "note": "pEC50: −log10 of the molar value. *1 amine or outer side, *2 acyl side, *3 side chain or, on linkers, in order; H or OH if unused. Where a SMILES comes first, the peptide text is derived from it. [ ]: non-standard residue; d: D form. The star is where a group is joined. NMe(dihydroBmt) = CCCC[C@@H](C)[C@@H](O)[C@H](NC)C(=O)O; X12 = COc1ccc(COC(C)(C)CC(C(=O)[*:2])N(C)[*:1])cc1; MeBmt = C/C=C/C[C@@H](C)[C@@H](O)[C@H](NC)C(=O)O; X11 = CN([C@@H](CC(C)(C)OCCO)C(=O)[*:2])[*:1]; X15 = CSCOC(C)(C)C[C@@H](C(=O)[*:2])N(C)[*:1]; X3 = CC=CCC(C)C(O)C(C(=O)[*:2])N(C)[*:1]; X5 = CSCOC(C)(C)CC(C(=O)[*:2])N(C)[*:1]; X7 = CN(C(SCCCN1CCOCC1)C(=O)[*:2])[*:1]; NMeL = CN[CH](CC(C)C)C(=O)O; NMeV = CN[CH](C(=O)O)C(C)C; dNMeC = CN[C@H](CS)C(=O)O; Et2NCH2CH2 = CCN(CC)CC*; Abu = CC[CH](N)C(=O)O; Sar = CNCC(=O)O", "data": [{"system": "HCV replicon in cell line ET (luc-ubi-neo/ET), Huh7 human hepatoma", "assay": "HCV subgenomic replicon assay, luciferase end point", "assay_type": "cell-based", "conditions": "Hepatitis C virus, Huh-7, Table 14, HCV replicon luciferase; read-out: Antiviral activity EC50", "values": [{"smiles": "C/C=C/C[C@@H](C)[C@@H](O)[C@H]1C(=O)N[C@@H](CC)C(=O)N(C)[C@H](CSCCCN2CCOCC2)C(=O)N(C)[C@@H](CC(C)(C)O)C(=O)N[C@@H](C(C)C)C(=O)N(C)[C@@H](CC(C)C)C(=O)N[C@@H](C)C(=O)N[C@H](C)C(=O)N(C)[C@@H](CC(C)C)C(=O)N(C)[C@@H](CC(C)C)C(=O)N(C)[C@@H](C(C)C)C(=O)N1C", "pEC50": 7.70}, {"smiles": "C/C=C/C[C@@H](C)[C@@H](O)[C@H]1C(=O)N[C@@H](CC)C(=O)N(C)[C@H](CSCCN(CC)CC)C(=O)N(C)[C@@H](CC(C)(C)OCSC)C(=O)N[C@@H](C(C)C)C(=O)N(C)[C@@H](CC(C)C)C(=O)N[C@@H](C)C(=O)N[C@H](C)C(=O)N(C)[C@@H](CC(C)C)C(=O)N(C)[C@@H](CC(C)C)C(=O)N(C)[C@@H](C(C)C)C(=O)N1C", "note": "(cyclo(A[dA][NMeL][NMeL][NMeV][MeBmt][Abu][dNMeC](Et2NCH2CH2)[X15]V[NMeL]))", "pEC50": 7.70}, {"smiles": "C/C=C/C[C@@H](C)[C@@H](O)[C@H]1C(=O)N[C@@H](CC)C(=O)N(C)[C@H](CSCCCN(CC)CC)C(=O)N(C)[C@@H](CC(C)(C)O)C(=O)N[C@@H](C(C)C)C(=O)N(C)[C@@H](CC(C)C)C(=O)N[C@@H](C)C(=O)N[C@H](C)C(=O)N(C)[C@@H](CC(C)C)C(=O)N(C)[C@@H](CC(C)C)C(=O)N(C)[C@@H](C(C)C)C(=O)N1C", "pEC50": 7.52}, {"smiles": "C/C=C/C[C@@H](C)[C@@H](O)[C@H]1C(=O)N[C@@H](CC)C(=O)N(C)[C@H](CSCCN(C)C(C)C)C(=O)N(C)[C@@H](CC(C)(C)O)C(=O)N[C@@H](C(C)C)C(=O)N(C)[C@@H](CC(C)C)C(=O)N[C@@H](C)C(=O)N[C@H](C)C(=O)N(C)[C@@H](CC(C)C)C(=O)N(C)[C@@H](CC(C)C)C(=O)N(C)[C@@H](C(C)C)C(=O)N1C", "pEC50": 7.40}]}, {"system": "HCV replicon in cell line ET (luc-ubi-neo/ET), Huh7 human hepatoma", "assay": "HCV subgenomic replicon assay, luciferase end point", "assay_type": "cell-based", "conditions": "Table 12, HCV replicon luciferase; read-out: Antiviral activity EC50", "values": [{"smiles": "CC=CCC(C)C(O)C1C(=O)NC(CC)C(=O)N(C)C(SCCNCC(C)(C)C)C(=O)N(C)C(CC(C)C)C(=O)NC(C(C)C)C(=O)N(C)C(CC(C)C)C(=O)NC(C)C(=O)NC(C)C(=O)N(C)C(CC(C)C)C(=O)N(C)C(CC(C)C)C(=O)N(C)C(C(C)C)C(=O)N1C", "note": "[(S)-2-(N-neo-Pentylamino)ethylthio-Sar]-3-cyclosporin]", "pEC50": 6.64}]}, {"system": "HCV replicon in cell line ET (luc-ubi-neo/ET), Huh7 human hepatoma", "assay": "HCV subgenomic replicon assay, luciferase end point", "assay_type": "cell-based", "conditions": "Table 13, HCV replicon luciferase; read-out: Antiviral activity EC50", "values": [{"smiles": "CC=CCC(C)C(O)C1C(=O)NC(CC)C(=O)N(C)CC(=O)N(C)C(CC(C)(C)OC)C(=O)NC(C(C)C)C(=O)N(C)C(CC(C)C)C(=O)NC(C)C(=O)NC(C)C(=O)N(C)C(CC(C)C)C(=O)N(C)C(CC(C)C)C(=O)N(C)C(C(C)C)C(=O)N1C", "note": "(stereo not shown) [[(γ-Methoxy)-N-MeLeu]-4-cyclosporin]", "pEC50": 6.74}, {"smiles": "CCCC[C@@H](C)[C@@H](O)[C@H]1C(=O)N[C@@H](CC)C(=O)N(C)CC(=O)N(C)[C@@H](CC(C)(C)OCCO)C(=O)N[C@@H](C(C)C)C(=O)N(C)[C@@H](CC(C)C)C(=O)N[C@@H](C)C(=O)N[C@H](C)C(=O)N(C)[C@@H](CC(C)C)C(=O)N(C)[C@@H](CC(C)C)C(=O)N(C)[C@@H](C(C)C)C(=O)N1C", "note": "[[γ-(2-Hydroxyethoxy)-N-MeLeu]-4-dihydrocyclosporin] (cyclo(A[dA][NMeL][NMeL][NMeV][NMe(dihydroBmt)][Abu][Sar][X11]V[NMeL]))", "pEC50": 6.37}, {"smiles": "CC=CCC(C)C(O)C1C(=O)NC(CC)C(=O)N(C)C(SCCCN2CCOCC2)C(=O)N(C)C(CC(C)(C)OCc2ccc(OC)cc2)C(=O)NC(C(C)C)C(=O)N(C)C(CC(C)C)C(=O)NC(C)C(=O)NC(C)C(=O)N(C)C(CC(C)C)C(=O)N(C)C(CC(C)C)C(=O)N(C)C(C(C)C)C(=O)N1C", "note": "(stereo not shown) (cyclo([X3][Abu][X7][X12]V[NMeL]AA[NMeL][NMeL][NMeV]); configuration not given here)", "pEC50": 6.55}, {"smiles": "CC=CCC(C)C(O)C1C(=O)NC(CC)C(=O)N(C)C(SCCCN2CCOCC2)C(=O)N(C)C(CC(C)(C)OCSC)C(=O)NC(C(C)C)C(=O)N(C)C(CC(C)C)C(=O)NC(C)C(=O)NC(C)C(=O)N(C)C(CC(C)C)C(=O)N(C)C(CC(C)C)C(=O)N(C)C(C(C)C)C(=O)N1C", "note": "(stereo not shown) (cyclo([X3][Abu][X7][X5]V[NMeL]AA[NMeL][NMeL][NMeV]); configuration not given here)", "pEC50": 6.80}]}, {"system": "HCV replicon in cell line ET (luc-ubi-neo/ET), Huh7 human hepatoma", "assay": "HCV subgenomic replicon assay, luciferase end point", "assay_type": "cell-based", "conditions": "Table 14, HCV replicon luciferase; read-out: Antiviral activity EC50", "values": [{"smiles": "C/C=C/C[C@@H](C)[C@@H](O)[C@H]1C(=O)N[C@@H](CC)C(=O)N(C)[C@@H](CSCCN(CC)CC)C(=O)N(C)[C@@H](CC(C)(C)O)C(=O)N[C@@H](C(C)C)C(=O)N(C)[C@@H](CC(C)C)C(=O)N[C@@H](C)C(=O)N[C@H](C)C(=O)N(C)[C@@H](CC(C)C)C(=O)N(C)[C@@H](CC(C)C)C(=O)N(C)[C@@H](C(C)C)C(=O)N1C", "note": "(single isomer, unassigned; isomer a)", "pEC50": 5.67}]}, {"system": "HCV replicon in cell line ET (luc-ubi-neo/ET), Huh7 human hepatoma", "assay": "HCV subgenomic replicon assay, luciferase end point", "assay_type": "cell-based", "conditions": "Table 16, HCV replicon luciferase; read-out: Antiviral activity EC50", "values": [{"smiles": "C/C=C/C[C@@H](C)[C@@H](O)[C@H]1C(=O)N[C@@H](CC)C(=O)N(C)[C@H](CSCCCN(CC(C)C)CC(C)C)C(=O)N(C)[C@@H](CC(C)(C)O)C(=O)N[C@@H](C(C)C)C(=O)N(C)[C@@H](CC(C)C)C(=O)N[C@@H](C)C(=O)N[C@H](C)C(=O)N(C)[C@@H](CC(C)C)C(=O)N(C)[C@@H](CC(C)C)C(=O)N(C)[C@@H](C(C)C)C(=O)N1C", "pEC50": 7.40}, {"smiles": "CC=CCC(C)C(O)C1C(=O)NC(CC)C(=O)N(C)C(CSCCCN2CCN(CC(C)(C)C)CC2)C(=O)N(C)C(CC(C)(C)O)C(=O)NC(C(C)C)C(=O)N(C)C(CC(C)C)C(=O)NC(C)C(=O)NC(C)C(=O)N(C)C(CC(C)C)C(=O)N(C)C(CC(C)C)C(=O)N(C)C(C(C)C)C(=O)N1C", "note": "(stereo not shown)", "pEC50": 7.22}, {"smiles": "CC=CCC(C)C(O)C1C(=O)NC(CC)C(=O)N(C)C(CSCCCCNCC(C)(C)C)C(=O)N(C)C(CC(C)(C)O)C(=O)NC(C(C)C)C(=O)N(C)C(CC(C)C)C(=O)NC(C)C(=O)NC(C)C(=O)N(C)C(CC(C)C)C(=O)N(C)C(CC(C)C)C(=O)N(C)C(C(C)C)C(=O)N1C", "note": "(stereo not shown)", "pEC50": 7.40}]}]}
